The values that follow come from EP0520722B1, “Therapeutic preparations containing quinazoline derivatives” (ZENECA LIMITED, priority 1991, dated 1992).

For one experiment, the target named is T1, receptor tyrosine kinase (Homo sapiens, UniProt P00533).
T1 construct: The supernatant, containing solubilised receptor tyrosine kinase, was stored in liquid nitrogen; endogenous in cells; host or cells: A-431 cells (human vulval carcinoma); detergent-solubilised membrane fraction
As to the kind of experiment: Test (a): in vitro receptor tyrosine kinase inhibition assay (EGF-stimulated peptide phosphorylation, [γ-32P]ATP). It is filed as biochemical. As to conditions: enzyme partially purified from A-431 cells (human vulval carcinoma); in presence of EGF; 25°C for 10 minutes. The procedure:
(a) An in vitro assay which determines the ability of a test compound to inhibit the enzyme receptor tyrosine kinase. Receptor tyrosine kinase was obtained in partially purified form from A-431 cells (derived from human vulval carcinoma) by procedures related to those described by Carpenter et al., J. Biol. Chem., 1979, 254, 4884, Cohen et al., J. Biol. Chem., 1982, 257, 1523 and by Braun et al., J. Biol. Chem., 1984, 259, 2051.
A-431 cells were grown to confluence using Dulbecco′s modified Eagle′s medium (DMEM) containing 5% fetal calf serum (FCS). The obtained cells were homogenised in a hypotonic borate/EDTA buffer at pH 10.1. The homogenate was centrifuged at 400 g for 10 minutes at 0-4°C. The supernatant was centrifuged at 25,000 g for 30 minutes at 0-4°C. The pelleted material was suspended in 30 mM Hepes buffer at pH 7.4 containing 5% glycerol, 4 mM benzamidine and 1% Triton X-100, stirred for 1 hour at 0-4°C, and recentrifuged at 100,000 g for 1 hour at 0-4°C. The supernatant, containing solubilised receptor tyrosine kinase, was stored in liquid nitrogen.
For test purposes 40 µl of the enzyme solution so obtained was added to a mixture of 400 µl of a mixture of 150 mM Hepes buffer at pH 7.4, 500 µM sodium orthovanadate, 0.1% Triton X-100, 10% glycerol, 200 µl water, 80 µl of 25 mM DTT and 80µl of a mixture of 12.5 mM manganese chloride, 125 mM magnesium chloride and distilled water. There was thus obtained the test enzyme solution.
Each test compound was dissolved in dimethylsulphoxide (DMSO) to give a 50 mM solution which was diluted with 40 mM Hepes buffer containing 0.1% Triton X-100, 10% glycerol and 10% DMSO to give a 500 µM solution. Equal volumes of this solution and a solution of epidermal growth factor (EGF; 20 µg/ml) were mixed.
[γ-^32P]ATP (3000 Ci/mM, 250 µCi) was diluted to a volume of 2 ml by the addition of a solution of ATP (100 µM) in distilled water. An equal volume of a 4 mg/ml solution of the peptide Arg-Arg-Leu-Ile-Glu-Asp-Ala-Glu-Tyr-Ala-Ala-Arg-Gly in a mixture of 40 mM Hepes buffer at pH 7.4, 0.1% Triton X-100 and 10% glycerol was added.
The test compound/EGF mixture solution (5 µl) was added to the test enzyme solution (10 µl) and the mixture was incubated at 0-4°C for 30 minutes. The ATP/peptide mixture (10 µl) was added and the mixture was incubated at 25°C for 10 minutes. […] Radioactivity present in the filter paper was measured using a liquid scintillation counter (Sequence A). […]
Receptor tyrosine kinase inhibition was calculated as follows:- % Inhibition =[…] [formula]
The extent of inhibition was then determined at a range of concentrations of test compound to give an IC50 value.

For experiment [1], the system named is human naso-pharyngeal cell line KB. The experiment in a line: Test (b): in vitro inhibition of EGF-stimulated growth of KB cells (MTT). Type of experiment: cell-based. As to conditions: 72 h, EGF (10 ng/ml), incubation for 3 days. The procedure: (b) An in vitro assay which determines the ability of a test compound to inhibit the growth of the human naso-pharyngeal cell line KB.
KB cells were seeded into wells at a density of 1 x 10 - 1.5 x 10^4 cells per well and grown for 24 hours in DMEM supplemented with 5% FCS (charcoal-stripped). Cell growth was determined after incubation for 3 days by the extent of metabolism of MTT tetrazolium dye to furnish a bluish colour. Cell growth was then determined in the presence of EGF (10 ng/ml) or in the presence of EGF (10 ng/ml) and a test compound at a range of concentrations. An IC50 value could then be calculated.

Molecules are shown by their SMILES. Where a name gives a salt, the structure may show the parent alone.

T1 sequence (P00533 25-1210): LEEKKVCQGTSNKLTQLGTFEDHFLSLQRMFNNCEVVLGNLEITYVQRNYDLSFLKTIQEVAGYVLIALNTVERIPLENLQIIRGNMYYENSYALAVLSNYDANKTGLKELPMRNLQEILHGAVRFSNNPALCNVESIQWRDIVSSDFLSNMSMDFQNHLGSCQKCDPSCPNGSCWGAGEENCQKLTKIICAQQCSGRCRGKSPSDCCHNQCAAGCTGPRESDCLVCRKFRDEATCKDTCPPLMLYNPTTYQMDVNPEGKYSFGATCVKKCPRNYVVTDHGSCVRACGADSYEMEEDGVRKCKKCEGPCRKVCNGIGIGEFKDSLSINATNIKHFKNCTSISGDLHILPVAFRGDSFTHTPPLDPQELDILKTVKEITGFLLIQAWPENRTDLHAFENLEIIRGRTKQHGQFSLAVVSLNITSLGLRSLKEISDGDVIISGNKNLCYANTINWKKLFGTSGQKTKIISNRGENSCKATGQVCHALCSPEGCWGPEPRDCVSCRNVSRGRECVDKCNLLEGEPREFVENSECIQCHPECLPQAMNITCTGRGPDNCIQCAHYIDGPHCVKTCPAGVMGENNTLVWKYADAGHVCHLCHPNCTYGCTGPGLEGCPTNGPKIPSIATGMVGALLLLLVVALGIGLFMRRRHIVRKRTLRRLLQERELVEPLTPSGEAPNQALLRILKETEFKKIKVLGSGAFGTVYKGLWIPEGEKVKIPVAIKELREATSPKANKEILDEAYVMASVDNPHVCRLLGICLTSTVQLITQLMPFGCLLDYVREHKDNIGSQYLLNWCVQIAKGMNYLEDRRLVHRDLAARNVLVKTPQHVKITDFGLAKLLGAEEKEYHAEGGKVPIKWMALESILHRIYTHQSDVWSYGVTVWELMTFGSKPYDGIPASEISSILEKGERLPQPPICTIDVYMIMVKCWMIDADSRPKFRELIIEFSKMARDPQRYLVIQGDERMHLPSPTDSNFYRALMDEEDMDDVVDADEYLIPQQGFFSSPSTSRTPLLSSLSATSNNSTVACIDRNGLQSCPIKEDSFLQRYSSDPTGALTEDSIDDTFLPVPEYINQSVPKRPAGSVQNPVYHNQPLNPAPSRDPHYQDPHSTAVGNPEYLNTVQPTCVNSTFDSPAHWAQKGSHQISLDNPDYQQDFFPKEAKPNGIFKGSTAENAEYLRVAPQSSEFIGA

Turning to `Clc1cccc(Nc2ncnc3ccccc23)c1` [4-(3'-chloroanilino)quinazoline, 4-(3′-chloroanilino)quinazoline hydrochloride], the IC50 was 40 nM on receptor tyrosine kinase and roughly 5000 nM in experiment [1].
With `Clc1cccc(Nc2ncnc3cc(Cl)ccc23)c1` [7-chloro-4-(3'-chloroanilino)quinazoline], the half-maximal inhibitory concentration (IC50) was found to be 20 nM on receptor tyrosine kinase and 1000 nM in experiment [1].
In the case of `Brc1cccc(Nc2ncnc3ccccc23)c1` [4-(3'-bromoanilino)quinazoline, 4-(3'-bromoanilino)quinazoline hydrochloride], the IC50 on receptor tyrosine kinase came out at 20 nM; in experiment [1] it was 780 nM.
For `Cc1cccc(Nc2ncnc3ccccc23)c1` [4-(3'-methylanilino)-quinazoline], in that order: 180 nM and roughly 5000 nM.
